Measurements from US9187425B2, “2,5-disubstituted arylsulfonamide CCR3 antagonists” (Axikin Pharmaceuticals, Inc., priority 2009, dated 2015).

biological target: T1, CCR3 (UniProt P51677); assay: CCR3 Receptor Binding Assay ([125I]-labeled human eotaxin/CCL11 displacement on cells); conditions: 0.1 nM [125I]-labeled human eotaxin/CCL11, 60 min at room temperature, 2×10^5 cells/well
T1 sequence (P51677 1-355): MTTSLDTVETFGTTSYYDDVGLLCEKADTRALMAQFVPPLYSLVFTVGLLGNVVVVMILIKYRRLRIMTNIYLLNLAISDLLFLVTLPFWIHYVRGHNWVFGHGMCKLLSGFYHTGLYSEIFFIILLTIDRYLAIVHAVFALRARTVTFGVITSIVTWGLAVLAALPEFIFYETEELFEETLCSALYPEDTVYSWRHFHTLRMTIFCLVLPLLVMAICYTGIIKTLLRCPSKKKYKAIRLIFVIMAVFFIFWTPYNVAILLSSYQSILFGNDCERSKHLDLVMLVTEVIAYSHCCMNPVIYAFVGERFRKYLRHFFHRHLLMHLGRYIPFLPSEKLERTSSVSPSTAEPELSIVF
Protocol: Cells were washed once with PBS and resuspended in a binding buffer (25 mM HEPES pH 7.6, 5 mM MgCl2, 1 mM CaCl2, 0.5% BSA, 0.1% NaN3). […] of cell suspension (2×10^5 cells/well) and 0.1 nM [^125I]-labeled human eotaxin/CCL11 (2000 Ci/mmol specific activity) were mixed in a 96-well U-bottom polypropylene plate, and incubated for 60 min at room temperature for the binding reaction. The cell suspension was then transferred to a filtration plate (#MAFB, Millipore), and washed 3 times with the binding buffer containing 0.5 M NaCl, scintillant added, and the radioactivity was counted on a TopCount (Packard). For the determination of non-specific binding, the cell suspension and [^125I]-labeled human eotaxin/CCL11 were incubated in the presence of 500 nM of unlabeled human eotaxin/CCL11. See, Iino et al., “Molecular cloning and functional characterization of cynomolgus monkey (Macaca fascicularis) CC chemokine receptor, CCR3,” Cytokine 2002, 19, 276-286.
Biological results are summarized in Table 1, wherein A represents a value no greater than 50 nM, and B represents a value greater than 50 nM but no greater than 500 nM, C represents a value greater than 500 nM but no greater than 5 μM, and D represents a value greater than 5 μM.

Compound	Ki [nM]
N#Cc1ccc(Sc2cc(C(F)(F)F)cc(C(F)(F)F)c2)c(S(=O)(=O)N2CCSCC2)c1 [Compound 19]	> 5000
O=[N+]([O-])c1ccc(Sc2cc(Cl)cc(Cl)c2)c(S(=O)(=O)N2CCSCC2)c1 [Compound 24]	> 5000
CC1CN(S(=O)(=O)c2cc(C#N)ccc2Sc2cc(Cl)cc(Cl)c2)CC(C)N1 (stereo not drawn) [Compound 28]	≤ 50
Cc1cc(C)cc(Sc2ccc(C#N)cc2S(=O)(=O)N2CCCCC2)c1 [Compound 4]	≤ 50
N#Cc1ccc(S(=O)(=O)c2cc(Cl)cc(Cl)c2)c(S(=O)(=O)N2CCCCC2)c1 [Compound 3]	> 5000
Cc1cc(C)cc(Sc2ccc(C#N)cc2S(=O)(=O)N2CCS(=O)(=O)CC2)c1 [Compound 26]	> 5000
N#Cc1ccc(Sc2cc(C(F)(F)F)cc(C(F)(F)F)c2)c(S(=O)(=O)N2CCS(=O)(=O)CC2)c1 [Compound 20]	> 5000
N#Cc1ccc(Sc2cc(Cl)cc(Cl)c2)c(S(=O)(=O)N2CCS(=O)(=O)CC2)c1 [Compound 23]	≤ 50
N#Cc1ccc([S+]([O-])c2cc(Cl)cc(Cl)c2)c(S(=O)(=O)N2CCCCC2)c1 (stereo not drawn) [Compound 2]	> 5000
CC1CN(S(=O)(=O)c2cc(C#N)ccc2Sc2cc(Cl)cc(Cl)c2)CCN1 (stereo not drawn) [Compound 27]	≤ 50
N#Cc1ccc(Sc2cc(Cl)cc(Cl)c2)c(S(=O)(=O)N2CCNC(=O)C2)c1 [Compound 9]	≤ 50
N#Cc1ccc(Sc2cc(Cl)cc(Cl)c2)c(S(=O)(=O)N2CCS(=O)(=O)CC2)c1 [Compound 14]	≤ 50
N#Cc1ccc(Sc2cc(Cl)cc(Cl)c2)c(S(=O)(=O)N2CCOCC2)c1 [Compound 12]	≤ 50
Cc1cc(C)cc(Sc2ccc(C#N)cc2S(=O)(=O)N2CCC(C)CC2)c1 [Compound 5]	> 5000
N#Cc1ccc(Sc2cc(Cl)cc(Cl)c2)c(S(=O)(=O)N2CCNC(=O)C2)c1 [Compound 11]	≤ 50
N#Cc1ccc(Sc2cc(Cl)cc(Cl)c2)c(S(=O)(=O)N2CCSCC2)c1 [Compound 21]	50 to 500
CC1CN(S(=O)(=O)c2cc(C#N)ccc2Sc2cc(Cl)cc(Cl)c2)CC(C)N1 (stereo not drawn) [Compound 29]	≤ 50
N#Cc1ccc(Sc2cc(Cl)cc(Cl)c2)c(S(=O)(=O)N2CCC(F)CC2)c1 [Compound 7]	≤ 50
N#Cc1ccc(Sc2cc(Cl)cc(Cl)c2)c(S(=O)(=O)N2CCSCC2)c1 [Compound 13]	≤ 50
Cc1cc(C)cc(Sc2ccc(C#N)cc2S(=O)(=O)N2CCS(=O)(=O)CC2)c1 [Compound 17]	≤ 50
N#Cc1ccc(Sc2cc(Cl)cc(Cl)c2)c(S(=O)(=O)N2CCCCC2)c1 [Compound 1]	50 to 500
Cc1cc(C)cc(Sc2ccc(C#N)cc2S(=O)(=O)N2CCSCC2)c1 [Compound 16]	> 5000
O=[N+]([O-])c1ccc(Sc2cc(Cl)cc(Cl)c2)c(S(=O)(=O)N2CCS(=O)(=O)CC2)c1 [Compound 30]	≤ 50
Cc1cc(C)cc(Sc2ccc([N+](=O)[O-])cc2S(=O)(=O)N2CCSCC2)c1 [Compound 25]	> 5000
N#Cc1ccc(Sc2cc(C(F)(F)F)cc(C(F)(F)F)c2)c(S(=O)(=O)N2CCOCC2)c1 [Compound 18]	500 to 5000
COC(=O)C1CN(S(=O)(=O)c2cc(C#N)ccc2Sc2cc(Cl)cc(Cl)c2)CCN1 (stereo not drawn) [Compound 32]	≤ 50
CC1CCN(S(=O)(=O)c2cc(C#N)ccc2Sc2cc(Cl)cc(Cl)c2)CC1 [Compound 6]	> 5000
CC(C)N1CCN(S(=O)(=O)c2cc(C#N)ccc2Sc2cc(Cl)cc(Cl)c2)CC1=O [Compound 31]	≤ 50
Cc1cc(C)cc(Sc2ccc(C#N)cc2S(=O)(=O)N2CCNC(=O)C2)c1 [Compound 10]	≤ 50
CC1CC(C)CN(S(=O)(=O)c2cc(C#N)ccc2Sc2cc(Cl)cc(Cl)c2)C1 (stereo not drawn) [Compound 8]	> 5000
